Source: publication PMC8389807 (Journal of Medicinal Chemistry, 2021)
Where two headings read alike, the source gives them in different places.

Experiments:
HIV-1 (NL4.3) [1] = test: microbe, parasite or virus in culture; format: cell-based; conditions: Human immunodeficiency virus 1, MT4; MT-4 cells; 50% reduction of virus-induced cytopathic effect
[2] = target: gp120 binding of mAb clone 447-52D (Human immunodeficiency virus type 1, UniProt P03377); test: Competition with anti-gp120 mAb 447-52D on HIV-1-infected MT-4 cells (flow cytometry); format: cell-based, HIV-1 NL4.3
Method: (§1) We then investigated the putative gp120 binding site for this class of compounds using competition-binding experiments with mAbs directed to different protein regions: (i) human mAb clone 2G12, whose epitope, composed entirely of N-linked glycans, is centered at position N332;[56]
(§2) These tests were carried out in cell culture using CD4^+ MT-4 T cells that express high levels of gp120 on their membrane when they become infected.
anti-mouse mAb). This is background staining or called negative control (NC).
bPositive control. HIV-1 infected cells stained with the first (anti-HIV-1 envelope antibody) and then the
This is the positive control (PC).
Finally, the mannose-specific lectin Hippeastrum hybrid agglutinin

[3] = tested on: BrCr Lab Strain of EV-A71; test: Antiviral activity against the BrCr lab strain of EV-A71 in RD cells (CPE reduction, MTS/PMS); format: cell-based; conditions: Enterovirus A, EVA71, RD, read-out: EC50
HIV-1 (NL4.3) [4] = test: microbe, parasite or virus in culture; format: cell-based; conditions: Human immunodeficiency virus 1; CXCR4-tropic strain, PBMC; read-out: HIV-1 (NL4.3) EC50
EV-A71 VP1 (P246S) = format: cell-based
[5] = tested on: coxsackievirus B3 Nancy strain; test: microbe, parasite or virus in culture; format: cell-based; conditions: Enterovirus B, Vero A host cell
rhinovirus 14 = test: microbe, parasite or virus in culture; format: cell-based; conditions: Enterovirus; rhinovirus 14, HeLa Rh host cell
HIV-2 (ROD) = test: Anti-HIV-2 activity in MT-4 cells (CPE, MTS/PES); format: cell-based; conditions: Human immunodeficiency virus 2, MT4, MT-4 cells; 50% reduction of virus-induced cytopathic effect; read-out: HIV-2 (ROD) EC50
[6] = target: gp120 binding of mAb 2G12 (Human immunodeficiency virus type 1, UniProt P03377); test: cell-based; format: cell-based; conditions: HIV-1 NL4.3-infected MT-4 cells, flow cytometry
in vitro [7] = conditions: human
[8] = target: gp120 binding of mAb clone 9284 (Human immunodeficiency virus type 1, UniProt P03377); test: Competition with anti-gp120 mAb 9284 on HIV-1-infected MT-4 cells (flow cytometry); format: cell-based, HIV-1 NL4.3
Method: as §1, §2

[9] = tested on: enterovirus D68 CU70 strain; test: microbe, parasite or virus in culture; format: cell-based; conditions: Enterovirus D, HeLa Rh host cell
[10] = target: T1, recombinant HIV-1 IIIB gp120 (Human immunodeficiency virus type 1 group M subtype B, UniProt P03375); test: biochemical; format: binding; conditions: SPR, four replicates
T1 construct: purchased ImmunoDx, Woburn, Massachusetts; host or cells: Chinese hamster ovary cells

[11] = tested on: EV71 genogroup B5 strain TW/70902/08; test: microbe, parasite or virus in culture; format: cell-based; conditions: Enterovirus A, genogroup B5, strain TW/70902/08, RD cells
rhinovirus 2 = test: microbe, parasite or virus in culture; format: cell-based; conditions: Enterovirus; rhinovirus 2, HeLa Rh host cell
[12] = target: gp120 binding of mAb 9305 (Human immunodeficiency virus type 1, UniProt P03377); test: cell-based; conditions: HIV-1 NL4.3-infected MT-4 cells, flow cytometry
gp120-CD4 binding = target: T2, gp120-CD4 binding (Human immunodeficiency virus type 1 group M subtype B, UniProt P03375); test: biochemical
T2 construct: […]; purchased CD4: Life Technologies Europe, Merelbeke, Belgium; gp120: not restated here (ImmunoDx inferred)

EV-A71 VP1 (S184T/P246S) = format: cell-based
[13] = tested on: EV71 genogroup B2 strain 11316; test: microbe, parasite or virus in culture; format: cell-based; conditions: Enterovirus A, genogroup B2, strain 11316, RD cells
[14] = tested on: EV71 genogroup C2 strain H08300 461#812; test: microbe, parasite or virus in culture; format: cell-based; conditions: Enterovirus A, genogroup C2, strain H08300 461#812, RD cells
in vitro [15] = conditions: human; remark: listed apart in the source
EV-A71 VP1 (S184T) = format: cell-based
HIV-1 (Ba-L) = test: microbe, parasite or virus in culture; format: cell-based; conditions: Human immunodeficiency virus 1, BAL; CCR5-tropic strain, PBMC; read-out: HIV-1 (Ba-L) EC50
[16] = tested on: EV71 genogroup C4 strain TW/1956/05; test: microbe, parasite or virus in culture; format: cell-based; conditions: Enterovirus A, genogroup C4, strain TW/1956/05, RD cells

O=C(CCOCC(COCCC(=O)NC(Cc1c(-c2cc(C(=O)O)cc(C(=O)O)c2)[nH]c2c(-c3cc(C(=O)O)cc(C(=O)O)c3)cccc12)C(=O)O)(COCCC(=O)NC(Cc1c(-c2cc(C(=O)O)cc(C(=O)O)c2)[nH]c2c(-c3cc(C(=O)O)cc(C(=O)O)c3)cccc12)C(=O)O)COCCC(=O)NC(Cc1c(-c2cc(C(=O)O)cc(C(=O)O)c2)[nH]c2c(-c3cc(C(=O)O)cc(C(=O)O)c3)cccc12)C(=O)O)NC(Cc1c(-c2cc(C(=O)O)cc(C(=O)O)c2)[nH]c2c(-c3cc(C(=O)O)cc(C(=O)O)c3)cccc12)C(=O)O (stereo not drawn) [Compound 33]
EC50 (HIV-1 (NL4.3) [1]): 6 ± 5 nM | IC50 ([2]; HIV-1 NL4.3-infected MT-4 cells, flow cytometry, average, read-out: 447-52D IC50): 6800 nM | inhibition at 0.16 µM ([2]; MT4, mAb 447-52D, 0.16 µM, Table S1, read-out: % inhibition of antibody binding): 16.9% | inhibition at 0.8 µM ([2]; MT4, mAb 447-52D, 0.8 µM, Table S1, read-out: % inhibition of antibody binding): 23.9% | inhibition at 4 µM ([2]; MT4, mAb 447-52D, 4 µM, Table S1, read-out: % inhibition of antibody binding): 36.5% | inhibition at 20 µM ([2]; MT4, mAb 447-52D, 20 µM, Table S1, read-out: % inhibition of antibody binding): 76.9% | % inhibition of antibody binding ([2]; mAb 447-52D, 0.16 µM, Table S1, listed as AL-518, 0.16 µM): 17% | % inhibition of antibody binding ([2]; mAb 447-52D, 20 µM, Table S1, listed as AL-518, 20 µM): 77% | IC50 ([2]; mAb 447-52D, Table S1, read-out: IC50): 6850 nM | EC50 ([3]; BrCr lab strain, RD cells, 50% reduction of virus-induced CPE): 40 ± 10 nM | EC50 ([3]; BrCr wild type (cross-resistance study)): 30 ± 10 nM | EC50 ([3]; enterovirus panel, enterovirus A71 BrCr strain, RD host cell): 40 ± 7 nM | EC50 ([3]; genogroup A, BrCr, RD cells (clinical isolate panel)): 43 ± 6 nM | EC50 (HIV-1 (NL4.3) [4]): 33 nM | EC50 (EV-A71 VP1 (P246S)): 30 ± 10 nM | EC50 [5]: > 50000 nM | EC50 (rhinovirus 14): > 50000 nM | EC50 (HIV-2 (ROD)): ~60 nM | 2G12 IC50 [6]: did not prevent the binding | IC50 [6]: > 100000 nM | CC50 (in vitro [7]): > 100000 nM | IC50 ([8]; HIV-1 NL4.3-infected MT-4 cells, flow cytometry, average, read-out: 9284 IC50): 3800 nM | inhibition at 0.16 µM ([8]; MT4, mAb 9284, 0.16 µM, Table S2, read-out: % inhibition of antibody binding): 25.1% | inhibition at 0.8 µM ([8]; MT4, mAb 9284, 0.8 µM, Table S2, read-out: % inhibition of antibody binding): 37.9% | inhibition at 4 µM ([8]; MT4, mAb 9284, 4 µM, Table S2, read-out: % inhibition of antibody binding): 51.4% | inhibition at 20 µM ([8]; MT4, mAb 9284, 20 µM, Table S2, read-out: % inhibition of antibody binding): 61.1% | % inhibition of antibody binding ([8]; mAb 9284, 0.16 µM, Table S2, listed as AL-518, 0.16 µM): 25% | % inhibition of antibody binding ([8]; mAb 9284, 20 µM, Table S2, listed as AL-518, 20 µM): 61% | IC50 ([8]; mAb 9284, Table S2, read-out: IC50): 3370 nM | EC50 [9]: > 50000 nM | kd ([10]; 1:1 Langmuir model): 2.45 ± 0.34 ×10^–3 s^–1 | kon ([10]; 1:1 Langmuir model, read-out: ka): 3340 ± 1020 M⁻¹ s⁻¹ | Kd ([10]; apparent KD): 840 ± 340 nM | EC50 [11]: 10 ± 1.5 nM | EC50 (rhinovirus 2): > 50000 nM | IC50 [12]: > 100000 nM | IC50 (gp120-CD4 binding; SPR, 25 nM gp120, immobilized CD4, read-out: concentration inhibiting 50% of gp120-CD4 binding): 10 to 40 nM | times more potent than AL-471 (gp120-CD4 binding; inhibition of gp120-CD4 binding): at least 16 | EC50 (EV-A71 VP1 (S184T/P246S)): 60 ± 40 nM | EC50 [13]: 101 ± 11 nM | EC50 [14]: 120 ± 6 nM | CC50 (in vitro [15]): > 100000 nM | EC50 (EV-A71 VP1 (S184T)): 100 ± 10 nM | EC50 (HIV-1 (Ba-L)): 36 nM | EC50 [16]: 11 ± 0.2 nM
